Like-named read-outs stand apart in the source and are kept apart here.

In one test the test system is DDR1 receptor. Kind of test: DDR1 cell based assay (PathHunter U2OS DDR1). The settings on record: U2OS-DDR1 cells, bovine Type II Collagen 20 μg/ml stimulation. Here is the method: The inhibition of DDR1 receptor activation by compounds was evaluated by PathHunter® U2OS DDR1 assay (Eurofins DiscoverX), according to the manufacturer's instructions. Briefly, U2O5-DDR1 cells were seeded in white 384-well plates at a density of 5000 cells/well and incubated for 2 hours at 37° C. and 5% CO2. Cells were then treated with compounds at different concentrations and incubated for 30 minutes, before stimulation with bovine Type II Collagen 20 μg/ml and incubation overnight at 37° C. and 5% CO2. PathHunter Detection Reagents were prepared according to the protocol provided by DiscoverX and 20 μl/well of this mix were added to each well. After incubating the plates for 1 hour at room temperature in the dark, luminescence signal was acquired with a plate reader. Raw data were normalized to vehicle control (0% for normalization) and positive control (100% for normalization; cells treated with 20 μg/ml collagen II) and IC50 parameters were calculated in GraphPad Prism 8.0 software, using sigmoidal dose-response curve fitting with variable slope.

The next test has as its target DDR2. In words: DDR2 LanthaScreen Europium Kinase Binding assay. Here is the method: (§1) DDR1 and DDR2 binding assays were performed using Life Technologies LanthaScreen™ Europium Kinase Binding assay. The compounds were incubated with 5 nM DDR1 (Carna Biosciences) or 5 nM DDR2 (Life Technologies) for 1 hour at room temperature in white 384-well OptiPlate (PerkinElmer), containing 20 nM or 10 nM Kinase Tracer 178 respectively and 2 nM Europium labelled anti-GST antibody (Life Technologies) in assay buffer (50 mM HEPES pH 7.5, 10 mM MgCl2, 1 mM EGTA and 0.01% BRIJ35). The ratio of fluorescence emission 665 nm/615 nm after excitation at 340 nm was obtained using the Tecan Spark 20M plate reader. IC50 values were determined in GraphPad Prism 8.0 software, using 4 parameter model: log(inhibitor) vs. response. IC50 values were converted in Ki using the Cheng-Prusoff equation (Ki=IC50/(1+[Tracer]/Kd).
Background: In TR-FRET formats the signal depends on donor and acceptor labels being close together.

In the next test the target is DDR1. In words: DDR1 LanthaScreen Europium Kinase Binding assay. Here is the method:
as §1

The mark [1] stands for this setting: 5 nM DDR2, 1 hour at room temperature, Ki from IC50 by Cheng-Prusoff, read-out: Ki DDR2.
Where [2] appears, read: 5 nM DDR1, 1 hour at room temperature, Ki from IC50 by Cheng-Prusoff, read-out: Ki DDR1.

Take `Cc1cn(-c2cc(NC(=O)c3ccc4c(c3)N(Cc3cncnc3)CC4)cc(C(F)(F)F)c2)cn1` [Example 1, N-(3-(4-methyl-1H-imidazol-1-yl)-5-(trifluoromethyl)phenyl)-1-(pyrimidin-5-ylmethyl)indoline-6-carboxamide]: the IC50 with DDR1 receptor is 50 to 80 nM. Moreover, the Ki on DDR2 (setting [1]) and at DDR1 (setting [2]) was < 25 nM each time.
In turn, `CNC(=O)c1cc(CN2CCc3ccc(C(=O)Nc4cc(-n5cnc(C)c5)cc(C(F)(F)F)c4)cc32)ccn1` [Example 2, N-(3-(4-methyl-1H-imidazol-1-yl)-5-(trifluoromethyl)phenyl)-1-((2-(methylcarbamoyl)pyridin-4-yl)methyl)indoline-6-carboxamide] came in with an IC50 with DDR1 receptor of 25 to 50 nM. Also, the Ki at DDR2 (setting [1]) and at DDR1 (setting [2]) was < 25 nM each time.
`CN1CCN(Cc2cc(NC(=O)c3ccc4c(c3)N(Cc3cncnc3)CC4)cc(C(F)(F)F)c2)CC1` [Example 3, N-(3-((4-methylpiperazin-1-yl)methyl)-5-(trifluoromethyl)phenyl)-1-(pyrimidin-5-ylmethyl)indoline-6-carboxamide]: the IC50 with DDR1 receptor was in the range of 50 to 80 nM. Moreover, the Ki on DDR2 (setting [1]) and on DDR1 (setting [2]) was < 25 nM in each case.
In the case of `CNC(=O)c1cc(CN2CCc3ccc(NC(=O)c4cc(-n5cnc(C)c5)cc(C(F)(F)F)c4)cc32)ccn1` [Example 6, N-methyl-4-((6-(3-(4-methyl-1H-imidazol-1-yl)-5-(trifluoromethyl)benzamido)indolin-1-yl)methyl)picolinamide], the IC50 with DDR1 receptor lay in the range of 25 to 50 nM. Moreover, the inhibitory constant (Ki) on DDR2 (setting [1]) and at DDR1 (setting [2]) was < 25 nM throughout.
Consider `CN1CCN(c2cncc(CN3CCc4ccc(C(=O)Nc5cccc(C(F)(F)F)c5)cc43)c2)CC1=O` [Example 7, 1-((5-(4-methyl-3-oxopiperazin-1-yl)pyridin-3-yl)methyl)-N-(3-(trifluoromethyl)phenyl)indoline-6-carboxamide], for which the concentration for half-maximal inhibition (IC50) in the test on DDR1 receptor is < 25 nM. Also, the inhibition constant Ki at DDR2 (setting [1]) and on DDR1 (setting [2]) was < 25 nM in each case.
For the compound `CN1CCN(Cc2ccc(NC(=O)c3ccc4c(c3)N(Cc3cnc(N)nc3)CC4)cc2C(F)(F)F)CC1` [Example 8, 1-((2-aminopyrimidin-5-yl)methyl)-N-(4-((4-methylpiperazin-1-yl)methyl)-3-(trifluoromethyl)phenyl)indoline-6-carboxamide], the IC50 with DDR1 receptor is < 25 nM. For the same compound, the Ki at DDR2 (setting [1]) was 25 to 50 nM; on DDR1 (setting [2]) it was < 25 nM.
Regarding `CN1CCN(Cc2ccc(NC(=O)c3ccc4c(c3)N(Cc3ccc(N)nc3)CC4)cc2C(F)(F)F)CC1` [Example 9, 1-((6-aminopyridin-3-yl)methyl)-N-(4-((4-methylpiperazin-1-yl)methyl)-3-(trifluoromethyl)phenyl)indoline-6-carboxamide], the IC50 in the test on DDR1 receptor was < 25 nM. The Ki on DDR2 (setting [1]) was 25 to 50 nM; at DDR1 (setting [2]), < 25 nM.
On to `CN1CCN(Cc2ccc(NC(=O)c3ccc4c(c3)N(Cc3cncnc3N)CC4)cc2C(F)(F)F)CC1` [Example 10, 1-((4-aminopyrimidin-5-yl)methyl)-N-(4-((4-methylpiperazin-1-yl)methyl)-3-(trifluoromethyl)phenyl)indoline-6-carboxamide], for which the IC50 with DDR1 receptor is < 25 nM. The Ki at DDR2 (setting [1]) and at DDR1 (setting [2]) was < 25 nM throughout.
Turning to `CN1CCN(Cc2ccc(NC(=O)c3ccc4c(c3)N(Cc3cnc(N)cn3)CC4)cc2C(F)(F)F)CC1` [Example 11, 1-((5-aminopyrazin-2-yl)methyl)-N-(4-((4-methylpiperazin-1-yl)methyl)-3-(trifluoromethyl)phenyl)indoline-6-carboxamide], the IC50 in the test with DDR1 receptor was < 25 nM. Besides, the Ki on DDR2 (setting [1]) and on DDR1 (setting [2]) was < 25 nM in each case.
As for `CNc1ncc(CN2CCc3ccc(C(=O)Nc4ccc(CN5CCN(C)CC5)c(C(F)(F)F)c4)cc32)cn1` [Example 12, 1-((2-(methylamino)pyrimidin-5-yl)methyl)-N-(4-((4-methylpiperazin-1-yl)methyl)-3-(trifluoromethyl)phenyl)indoline-6-carboxamide], the IC50 with DDR1 receptor is < 25 nM. The inhibitory constant (Ki) is 25 to 50 nM at DDR2 (setting [1]) and < 25 nM at DDR1 (setting [2]).
Take `CC(=O)Nc1ncc(CN2CCc3ccc(C(=O)Nc4ccc(CN5CCN(C)CC5)c(C(F)(F)F)c4)cc32)cn1` [Example 15, 1-((2-acetamidopyrimidin-5-yl)methyl)-N-(4-((4-methylpiperazin-1-yl)methyl)-3-(trifluoromethyl)phenyl)indoline-6-carboxamide]: in the test on DDR1 receptor, the IC50 is < 25 nM. For the same compound, the Ki on DDR1 (setting [2]) is < 25 nM.
Regarding `CN1CCN(Cc2ccc(NC(=O)c3ccc4c(c3)N(Cc3cncc(C(N)=O)c3)CC4)cc2C(F)(F)F)CC1` [Example 17, 1-((5-carbamoylpyridin-3-yl)methyl)-N-(4-((4-methylpiperazin-1-yl)methyl)-3-(trifluoromethyl)phenyl)indoline-6-carboxamide], the IC50 with DDR1 receptor lay in the range of 25 to 50 nM. In addition, the Ki at DDR2 (setting [1]) and on DDR1 (setting [2]) was < 25 nM throughout.
Consider `COCCn1cc(Nc2ncc(CN3CCc4ccc(C(=O)Nc5cc(CN6CCN(C)CC6)cc(C(F)(F)F)c5)cc43)cn2)cn1` [Example 19, 1-((2-((1-(2-methoxyethyl)-1H-pyrazol-4-yl)amino)pyrimidin-5-yl)methyl)-N-(3-((4-methylpiperazin-1-yl)methyl)-5-(trifluoromethyl)phenyl)indoline-6-carboxamide], for which the half-inhibitory concentration (IC50) with DDR1 receptor is < 25 nM. Further, the Ki at DDR2 (setting [1]) and on DDR1 (setting [2]) was < 25 nM in each case.
For the compound `CN(C)CCn1cc(Nc2ncc(CN3CCc4ccc(C(=O)Nc5cc(CN6CCN(C)CC6)cc(C(F)(F)F)c5)cc43)cn2)cn1` [Example 20, 1-((2-((1-(2-(dimethylamino)ethyl)-1H-pyrazol-4-yl)amino)pyrimidin-5-yl)methyl)-N-(3-((4-methylpiperazin-1-yl)methyl)-5-(trifluoromethyl)phenyl)indoline-6-carboxamide], the IC50 with DDR1 receptor was 50 to 80 nM. Further, the Ki at DDR2 (setting [1]) and on DDR1 (setting [2]) was < 25 nM in each case.
Compound `CN1CCN(Cc2cc(C(=O)Nc3ccc4c(c3)N(Cc3cnc(N)nc3)CC4)cc(C(F)(F)F)c2)CC1` [Example 21, N-(1-((2-aminopyrimidin-5-yl)methyl)indolin-6-yl)-3-((4-methylpiperazin-1-yl)methyl)-5-(trifluoromethyl)benzamide] came in with an IC50 in the test with DDR1 receptor of 50 to 80 nM. The Ki on DDR2 (setting [1]) and on DDR1 (setting [2]) was < 25 nM in each case.
As to `CN1CCN(Cc2cc(NC(=O)c3ccc4c(c3)N(c3cncnc3)CC4)cc(C(F)(F)F)c2)CC1` [Example C1, N-(3-((4-methylpiperazin-1-yl)methyl)-5-(trifluoromethyl)phenyl)-1-(pyrimidin-5-yl)indoline-6-carboxamide, reference compound], the results for the Ki at DDR2 (read-out: DDR2 Ki) and on DDR1 (read-out: DDR1 Ki) were 50000 nM and 30000 nM, respectively.
On the same counts, the results for `Cc1cn(-c2cc(NC(=O)c3ccc4c(c3)N(c3cncnc3)CC4)cc(C(F)(F)F)c2)cn1` [Example C2, N-(3-(4-methyl-1H-imidazol-1-yl)-5-(trifluoromethyl)phenyl)-1-(pyrimidin-5-yl)indoline-6-carboxamide, reference compound] are 4000 nM and 58000 nM.
On the same counts, the results for `CN1CCN(Cc2cc(C(=O)Nc3ccc4c(c3)N(c3cncnc3)CC4)cc(C(F)(F)F)c2)CC1` [Example C3, 3-((4-methylpiperazin-1-yl)methyl)-N-(1-(pyrimidin-5-yl)indolin-6-yl)-5-(trifluoromethyl)benzamide, reference compound] are 58000 nM and 58000 nM.

As usually defined, the IC50 is the concentration needed to halve the response being measured. One may read the Ki as a dissociation constant, usually derived from enzyme kinetics or from competition with a known ligand.

The values above are taken from patent publication US20240190847A1, “INDOLINE DERIVATIVES AS DDR1 AND DDR2 INHIBITORS” (CHIESI FARMACEUTICI S.P.A., priority 2021, published 2024).
